Columns and labels:
[1] = test system: psoriasis-induced BALB/c mice; assay: Psoriasis animal model (Aldara cream, Imiquimod); format: in vivo, mouse
Method: To verify the therapeutic effect of the compound according to the present invention on psoriasis, a psoriasis animal model was established as follows, and the compound according to the present invention was administered to evaluate the alleviation of skin lesions and changes in immune cell patterns.
For the establishment of the psoriasis animal model, BALB/c mice (7 weeks old, female, 20 g) were purchased from HanabioTech Co., Ltd. and acclimatized to the rearing environment for one week.
Subsequently, the hair on the mouse back was shaved using a hair removal device for the first time, and then completely shaved using a depilatory cream (Nicrin Cream (80% thioglycolic acid, Il Dong Pharmaceutical)) for the second time. The mice were then kept for 24 hours to confirm the absence of skin damage.
To verify the psoriasis prevention and therapeutic effects of the compounds according to the present invention, the following experimental groups were established:
[Normal control group (Normal, Not Treatment), psoriasis-induced control group (Psoriasis, Not Treatment), psoriasis-induced vehicle control group (Psoriasis, Vehicle), experimental group (GO85, GO86, GO88, GO89, PBK-2024-010, PBK-2024-026, PBK-2025-002, PBK-2025-004, PBK-2025-016, PBK-2025-017, PBK-2025-023)]. […]
Body weights of mice in each group were measured on days 1, 4, and 8 after the start of injection and psoriasis induction. […]
To evaluate the therapeutic effect in a psoriasis-induced mouse model, the PASI (Psoriasis Area and Severity Index) score was measured.
The PASI score is based on three criteria: erythema, scaling, and skin thickness, each scored from 0 (none) to 4 (severe). […]
Observations were conducted daily at the same time, and the same observer visually assessed each criterion and recorded the scores, with the results presented in FIG. 13. […]
All samples were measured in duplicate, and the absorbance was measured at 450 nm using a microplate reader.

[2] = test system: Human Colorectal Carcinoma cell line, HCT-116; assay: Relative cell viability, CCK-8, HCT-116; format: cell-based; details: 48 hours
Method: Human-derived breast cancer cell line MCF-7, human-derived lung cancer cell line A549, human-derived colorectal cancer cell line HCT-116, human pancreatic cancer cell line AsPC-1, glioblastoma cell line A172, and melanoma cell line Malme-3M were obtained from the Korean Cell Bank. gastric cancer cell line SNU-719, and bladder cancer cell line T24 were cultured in RPMI-1640 medium containing 10% FBS.
Following stabilization, the cells were harvested using Trypsin-EDTA treatment, centrifuged at 1,200 rpm for 3 minutes, the supernatant was removed, and the cells were resuspended in the same medium. They were then seeded into a 96-well plate (Costar 96-well cell culture plate, Corning) at 100 μL per well, and the conditions were adjusted as indicated in Table 5.
The cells were cultured in a 5% CO2 incubator at 37° C. for 24 hours, and after stabilization of the cells, each plate was washed with 200 μL of PBS per well and treated with 50 μL of culture medium per well.
After that, 10 μL of CCK-8 was added to each well, and the plate was incubated again at 37° C. in a 5% CO2 incubator for 2 hours.
In other words, when the survival rate of untreated cells (DMSO) is set at 100%, the relative cell survival rate in each group treated with the drug at different concentrations is indicated.

[3] = test system: phospho-PDK1 in SU-DHL-8 cells; assay: PDK1 phosphorylation (pPDK1) by flow cytometry in SU-DHL-8 cells; format: cell-based, human; details: SU-DHL-8, 24 hours, pPDK1-PE flow cytometry, vs control group
Method: SU-DHL-8 cells were cultured in RPMI-1640 medium (containing 10% FBS, 100 U/mL penicillin, and 100 μg/mL streptomycin), and the cell concentration was adjusted to 1×10^6 cells/mL and seeded into a 12-well plate. After stabilizing the cells, the compound of the present invention was added, and the cells were cultured for 24 hours.
After drug treatment, the cells were harvested, and the Fc receptor blocking process was performed. The cells were then fixed and permeabilized using the Intracellular Staining Kit (Cat. No. BD554715) from BD Biosciences. Subsequently, the intracellular pPDK1 was stained using the pPDK1-PE fluorescently labeled antibody (BD Biosciences).
Referring to the figure, the vertical axis represents the phosphorylation level of PDK1 (phospho-PDK1 expression level), and the horizontal axis denotes the concentration-dependent treatment conditions of each compound.

Structure (SMILES)	efficacy in improving dermatological symptoms [1]	Relative cell viability (%) ([2]; HCT-116, 1 μM)	Relative cell viability (%) ([2]; HCT-116, 10 μM)	Relative cell viability (%) ([2]; HCT-116, 30 μM)	Relative cell viability (%) ([2]; HCT-116, 50 μM)	PDK1 phosphorylation (phospho-PDK1 expression level) [3]
CC1(C)CN(CCCCCCCCCCCCC(=O)Nc2nc(N)c3[nH]cnc3n2)CCO1 [Compound 11, 12-[4-(2,2-dimethylmorpholin-4-yl)]dodecyl-N-(6-aminopurine-2-yl)carboxamide]	excellent efficacy in improving dermatological symptoms	21.36%	24.91%	24.78%	25.26%	stronger PDK1 inhibition
Nc1ncccc1C(=O)NCCCCCCCCCCCCN1CCNCC1 [Compound 14, 2-Amino-N-(12-(piperazin-1-yl)dodecyl)nicotinamide]	excellent efficacy in improving dermatological symptoms	–	–	–	–	stronger PDK1 inhibition

Source: patent US20260184700A1, “PDK1 REGULATORY COMPOUND AND COMPOSITION CONTAINING THE SAME” (PROVIBIO CO., LTD., priority 2024, published 2026)
